From the Kinase Knowledgebase extract (Sharma et al. 2016)

Target: PIK3CG (human) (UniProt P48736)
Assay: Inhibition of PIK3CG Kinase Activity

Sequence of PIK3CG (human) (P48736 whole entry, looked up): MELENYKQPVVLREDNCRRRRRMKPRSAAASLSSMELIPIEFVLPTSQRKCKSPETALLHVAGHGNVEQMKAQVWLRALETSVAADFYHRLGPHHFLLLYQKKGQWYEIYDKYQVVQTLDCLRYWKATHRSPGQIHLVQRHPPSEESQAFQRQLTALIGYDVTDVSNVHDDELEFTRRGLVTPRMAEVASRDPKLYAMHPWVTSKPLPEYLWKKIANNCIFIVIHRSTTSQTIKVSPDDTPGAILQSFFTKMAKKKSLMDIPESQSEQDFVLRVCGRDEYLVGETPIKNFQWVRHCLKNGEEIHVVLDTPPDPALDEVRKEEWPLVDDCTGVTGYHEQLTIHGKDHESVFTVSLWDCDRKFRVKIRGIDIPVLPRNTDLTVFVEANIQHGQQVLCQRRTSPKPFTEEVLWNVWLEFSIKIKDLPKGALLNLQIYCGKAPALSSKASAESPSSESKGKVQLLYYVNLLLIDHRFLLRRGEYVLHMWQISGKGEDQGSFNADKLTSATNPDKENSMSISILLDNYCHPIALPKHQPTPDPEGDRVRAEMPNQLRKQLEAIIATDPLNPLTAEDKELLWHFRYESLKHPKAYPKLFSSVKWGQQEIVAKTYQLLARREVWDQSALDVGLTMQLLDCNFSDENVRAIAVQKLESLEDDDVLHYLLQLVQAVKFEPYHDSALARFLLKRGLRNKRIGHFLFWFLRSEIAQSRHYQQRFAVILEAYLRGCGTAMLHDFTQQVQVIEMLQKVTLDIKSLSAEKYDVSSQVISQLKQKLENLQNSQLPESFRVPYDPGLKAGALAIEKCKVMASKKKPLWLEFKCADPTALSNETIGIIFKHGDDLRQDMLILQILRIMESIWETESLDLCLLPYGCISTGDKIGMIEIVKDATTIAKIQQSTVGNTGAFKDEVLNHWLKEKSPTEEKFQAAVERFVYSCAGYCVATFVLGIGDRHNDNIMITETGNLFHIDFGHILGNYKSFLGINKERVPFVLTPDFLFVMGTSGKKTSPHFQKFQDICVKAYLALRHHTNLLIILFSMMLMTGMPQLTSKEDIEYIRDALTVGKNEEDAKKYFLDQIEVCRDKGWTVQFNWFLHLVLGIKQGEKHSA

SMILES | IC50 [µM]
CCCn1nc(CCNC(=O)Nc2nc3c(s2)-c2c(cnn2-c2ccccc2C(F)(F)F)C3)cc1N | < 0.8
Cn1nc(CCNC(=O)Nc2nc3c(s2)-c2c(cnn2-c2ccccc2C(F)(F)F)C3)cc1N | < 0.8
CCOC(=O)c1ccc(CNC(=O)Nc2nc3c(s2)-c2c(cnn2-c2ccccc2C(F)(F)F)C3)o1 | < 0.8
CCOC(=O)CCNC(=O)Nc1nc2c(s1)-c1c(cnn1-c1ccccc1Br)C2 | < 0.8
CCNC(=O)Nc1nc2c(s1)-c1c(cnn1-c1ccccc1Br)C2 | < 0.8
O=C(Nc1nc2c(s1)-c1c(cnn1-c1ccccc1Cl)C2)Nc1ccccc1CN1CCNC1=O | < 0.8
CCCn1cnc(CCNC(=O)Nc2nc3c(s2)-c2c(cnn2-c2ccccc2C(F)(F)F)C3)c1 | < 0.8
Cc1cc(-c2ccccc2)n(CCNC(=O)Nc2nc3c(s2)-c2c(cnn2-c2ccccc2C(F)(F)F)C3)n1 | < 0.8
O=C(Nc1nc2c(s1)-c1c(cnn1-c1ccccc1Cl)C2)N1CCC(N2Cc3ccccc3NC2=O)C1 (configuration not stated) | < 0.8
O=C(NCc1cccs1)Nc1nc2c(s1)-c1c(cnn1-c1ccccc1C(F)(F)F)C2 | < 0.8
CC(C)(NC(=O)Nc1nc2c(s1)-c1c(cnn1-c1ccccc1Cl)C2)C1Nc2ccccc2NC1=O (configuration not stated) | < 0.8
Nc1cc(CCNC(=O)Nc2nc3c(s2)-c2c(cnn2-c2ccccc2C(F)(F)F)C3)nn1-c1ccccc1 | < 0.8
Nc1cc(CCNC(=O)Nc2nc3c(s2)-c2c(cnn2-c2ccccc2C(F)(F)F)C3)nn1Cc1ccccc1 | < 0.8
O=C(NCc1nnn[nH]1)Nc1nc2c(s1)-c1c(cnn1-c1ccccc1Br)C2 | < 0.8
O=C1Cc2ccccc2CN1CC1CCN(C(=O)Nc2nc3c(s2)-c2c(cnn2-c2ccccc2Cl)C3)C1 (configuration not stated) | < 0.8
CC(C)(C)OC(=O)NC1CCN(C(=O)Nc2nc3c(s2)-c2c(cnn2-c2ccccc2Cl)C3)C1 (configuration not stated) | < 0.8
Nc1cc(-c2ccccc2)nn1CCNC(=O)Nc1nc2c(s1)-c1c(cnn1-c1ccccc1C(F)(F)F)C2 | < 0.8
CC(C)(C)OC(=O)Nc1cccc(CNC(=O)Nc2nc3c(s2)-c2c(cnn2-c2ccccc2Cl)C3)c1 | < 0.8
O=C(NCCCN1CCNC1=O)Nc1nc2c(s1)-c1c(cnn1-c1ccccc1Cl)C2 | < 0.8
Cc1cc(C2CCCCC2)n(CCNC(=O)Nc2nc3c(s2)-c2c(cnn2-c2ccccc2C(F)(F)F)C3)n1 | < 0.8
Nc1cc(CNC(=O)Nc2nc3c(s2)-c2c(cnn2-c2ccccc2C(F)(F)F)C3)nn1-c1ccccc1 | < 0.8
CCCNC(=O)Nc1nc2c(s1)-c1c(cnn1-c1ccc(C(=O)NC)cc1C(F)(F)F)C2 | < 0.8
O=C(NCCc1nc(C2CC2)no1)Nc1nc2c(s1)-c1c(cnn1-c1ccccc1Cl)C2 | < 0.8
CC(C)(C)OC(=O)CC1(O)CCN(C(=O)Nc2nc3c(s2)-c2c(cnn2-c2ccccc2Cl)C3)CC1 | < 0.8
O=C(Nc1nc2c(s1)-c1c(cnn1-c1ccccc1Cl)C2)N1CCCC(c2ccccc2O)C1 (configuration not stated) | < 0.8
CNC(=O)Nc1nc2c(s1)-c1c(cnn1-c1cccc(F)c1C(F)(F)F)C2 | < 0.8
CCn1ccc(CNC(=O)Nc2nc3c(s2)-c2c(cnn2-c2ccccc2C(F)(F)F)C3)n1 | < 0.8
